Laboratory results as given in US11931340B2, “Use of sublingual dexmedetomidine for the treatment of agitation” (BioXcel Therapeutics, Inc., priority 2016, dated 2024).
Entries after “also recorded” stand apart in the source; their conditions may differ. Where a name gives a salt, the structure may show the parent alone. Read-outs that look alike come from different tables or passages of the source.

What was measured:
[1] = test system: rat ‘resident-intruder’ model of agitation or aggression; assay: Rat resident-intruder model of agitation or aggression; type: in vivo; details: for sublingual vs intravenous route: duration of the behavioral indices of aggression and agitation: doses of 1 and 1.5 μg/kg, student t-test
From the text: The resident-intruder model is an established preclinical model of aggression and agitation, and allows spontaneous and natural expression of both offensive aggression/agitation and defensive behavior in laboratory rodents in a semi natural laboratory setting.
Animals: 12-13 week old male Wistar rats weighing 380-400 g were used as resident males. 7-8 weeks old male rats weighing 280-300 g were used as the “intruder”. Resident rats were housed with female rats for 8 days to establish territoriality. The intruder rats were housed in groups of 3 with other male rats of similar age/body weight. All animals were maintained in a controlled environment with 22±3° C. temperature, 50±20% humidity, a light/dark cycle of 12 hours each and 15-20 fresh air changes per hour and had access to food and water ad-libitum. All animal experiments were conducted in accordance with the guidelines of the Committee for the Purpose of Control and Supervision of Experiments on Animals (CPCSEA), Government of India the Association for Assessment and Accreditation of Laboratory Animal Care international (AAALAC).
Dilutions were prepared fresh every day prior to dosing using 0.9% normal saline from the formulation 4 for the entire study.
Experimental Procedure: Following acclimatization for a period of 3-5 days, each resident male rat was housed with a female rat for 8 days. On day 8, basal aggression in the resident males was tested by exposing them to an “intruder rat” for 10 minutes. […] These animals were then randomized using body weight stratification method. […] Animals were housed with the female rat for an additional day. On day 9, the resident animal was paired with intruder animal of an appropriate bodyweight such that the body weight of the resident was always higher than the intruder. This was to facilitate dominant, aggressive behavior in the resident animals. After randomization, animals were assigned a permanent number. Cages were identified by cage cards indicating the study number, study code, group number, sex, dose, cage number and animal number details.
For sublingual dosing, the rats were held in one hand and using a blunt spatula the tongue was moved to one side of the mouth. […] Diazepam was used as a reference compound and was dosed intraperitoneally. Vehicle controls were treated with 0.9% saline administered sublingually or intravenously.
The behavior of the resident rat was recorded using an overhead video camera for 15 minutes and offline behavioral analysis was done using the Noldus Ethovision XT software. To distinguish the resident rat from the intruder rat in the video recording, the intruder rat was marked with non-toxic paint.
Statistical Analysis: Statistical analysis was performed using validated statistical software (GraphPad Prism 6). Data is represented as Mean±SEM. One-way ANOVA (analysis of variance) followed by “Dunnett's Multiple Comparison Test” at 95% confidence interval was applied for comparison of the relevant groups. p<0.05 was considered significant.

[2] = rat, in vivo
Description: Objective: To estimate Dexmedetomidine levels in rat plasma samples obtained after dosing animals via intravenous and sublingual routes at doses of 0.5, 1, 1.5 and 3 μg/kg.
Blood was collected under mild isoflurane anesthesia from the retro-orbital plexus at 0, 5, 15, 30, 60 and 120 minutes post dosing. Plasma was separated and stored at −80° C. until Dexmedetomidine concentration was analyzed.
Analytical Methods: Samples were analysed by using Agilent 1290 Infinity II HPLC system coupled to AB Sciex Triple Quad instrument (API-5000). Chromatographic separation was done using Agilent Zorbax Eclipse plus C18 column (50*2.1 mm, 1.8 μm) in gradient mode. The mobile phase consisted of 10 mM Ammonium Formate with pH 3.5 (Mobile phase A) and 100% Acetonitrile (Mobile phase B). The column temperature was 40° C. and flow rate was 0.35 mL/min. The MS instrument was operated in the positive mode (ESI+). For analysis, 2 μL of sample was injected into the LC-MS/MS instrument. Auto sampler temperature was 7° C.
WCX SPE 96 well plate was used for sample preparation. 50 μl of plasma sample was used for extraction. Along with study samples, one set of linearity and two sets of quality controls (QC) were also processed.
Sample pretreatment: To 50 μl of plasma, 10 μl of tolbutamide working solution was added (Tolbutamide 250 ng/ml). After mixing, […], of buffer solution (10 mM Ammonium Formate pH 3.5) was added. Contents were vortex mixed and loaded to preconditioned SPE plate.
After placing the cartridges in the negative pressure SPE unit, they were conditioned by passing 200 μl of 100% methanol followed by 200 μl of water. The pretreated plasma samples were then loaded to the pre-conditioned cartridges.
After loading pretreated plasma samples, cartridges were washed with 100 μl of 0.1% ammonia solution. Finally, bound analyte was eluted with 50 μl of 0.1% formic acid in acetonitrile. This step was repeated twice for complete elution. Final eluent volume was 100 μL. To 100 μL of eluent, 50 μL of 10 mM ammonium formate (pH 3.5) was added samples were vortex mixed and transferred to a 96-well HPLC sample plate (Agilent) and submitted for LC-MS/MS analysis. For LC-MS/MS analysis, 2 μL of sample was injected. Calibration standards and QCs were processed the same way as done for study samples.
The calibration curve was fitted by linear regression. The concentrations in the QC and test samples (pg/mL) were obtained from the Analyst software based on the calibration curve. […] 2) The correlation coefficient (r) of the calibration curve must be greater than or equal to 0.99. 3) At least two-thirds (4 out of 6) QC samples must be within ±20% relative error (accuracy)

SMILES: Cc1cccc([C@H](C)c2cnc[nH]2)c1C [Dexmedetomidine hydrochloride, (S)-4-[1-(2,3-Dimethylphenyl)ethyl]-3H-imidazole]
- doses that effectively reduced the behavioral indices of aggression and agitation without majorly impacting the neutral behaviors ([1]; administered sublingually or intravenously, doses used 0.5-3 μg/kg): 1 to 1.5 µg/kg
- various indices of agitation and aggression ([1]; conclusion, rat resident intruder model): effectively reduces various indices of agitation and aggression
- sublingual vs intravenous route: duration of the behavioral indices of aggression and agitation [1]: correlates with intravenously administered Dexmedetomidine hydrochloride
- sublingual vs intravenous route: duration of the behavioral indices of aggression and agitation ([1]; listed as dexmedetomidine hydrochloride): No significant differences (i.e. similar effect via sublingual
- latency to attack the intruder rat, significance vs vehicle controls ([1]; intravenous, 3 μg/kg, FIG. 2B): significant compared to vehicle controls
- neutral behavior: immobile/quiet time ([1]; intravenous, 3 μg/kg, FIG. 3F): significantly increased the immobile/quiet time
- neutral behaviors: grooming and exploration compared to vehicle controls ([1]; intravenous, 0.5-3 μg/kg, except at a dose of 3 μg/kg): did not significantly affect grooming and exploration
- indices of aggressive and agitated behaviors ([1]; intravenous, 0.5-3 μg/kg, FIG. 1C, 1D): reduced all the indices of aggressive and agitated behaviors
- anogenital sniffing, biting and attacking compared to vehicle controls ([1]; intravenous, doses above 0.5 μg/kg, FIG. 1C, 1D): significant reduction
- latency to attack the intruder rat compared to the vehicle control group ([1]; prior treatment, dose related manner, route not stated): significant increase in the latency to attack the intruder rat
- neutral behavior: exploration compared to vehicle controls ([1]; sublingual, 1.5 μg/kg & 3 μg/kg, FIGS. 3A and 3B): reduction in exploration
- frequency and duration of aggressive and agitated behaviors (anogenital sniffing, chasing, biting, attacking) ([1]; sublingual, 0.5-3 μg/kg, 15 minutes prior to testing, FIG. 1A, 1B): reduced the frequency and duration of these behaviors in a dose related manner; also recorded: dose related reduction
- latency to attack the intruder rat ([1]; sublingual, 0.5-3 μg/kg, dose related, FIG. 2A): increase in the latency to attack the intruder rat
- neutral behaviors: grooming and exploration compared to vehicle controls ([1]; sublingual, 0.5-3 μg/kg, except exploration at 1.5 and 3 μg/kg, FIGS. 3A and 3B): No significant changes
- chasing and attacking compared to vehicle control group ([1]; sublingual, 0.5-3 μg/kg, FIG. 1A, 1B): Significant reduction
- neutral behavior: immobile/quiet time compared to vehicle controls ([1]; sublingual, 0.5-3 μg/kg, FIG. 3C): no significant effect
- neutral behavior of animals ([1]; sublingually administered): No changes were observed
- Plasma concentrations between 15 to 30 min [2]: 43±13.5 to 90±12.1
- effect of dose on plasma concentrations [2]: dose-related effect on plasma concentrations
- plasma concentrations between 15 to 30 min [2]: 27±7.1-114±1.7
- effect of dose on plasma concentrations ([2]; iv): dose-dependent effect on plasma concentrations

SMILES: CN1C(=O)CN=C(c2ccccc2)c2cc(Cl)ccc21 [Diazepam]
- indices of aggressive and agitated behaviors ([1]; 3 mg/kg, i.p., FIG. 1A-1D): significant reduction in all the indices of aggressive and agitated behaviors
- attacking behavior / latency to attack ([1]; 3 mg/kg, i.p., FIGS. 2A and 2B): complete lack of attacking behavior
- frequency and duration of neutral behaviors ([1]; 3 mg/kg, ip): significantly reduced the frequency and duration of all neutral behaviors
